Among the data in patent publication US20100105655A1, “NOVEL COMPOUNDS 515” (ASTRAZENECA AB, priority 2008, published 2010) are IC50 values, retold here.

pIC50: −log10 of the molar value.

This experiment deals with T1, IGFR kinase (Homo sapiens, UniProt P08069).
T1 construct: purchased Millipore
As to the kind of experiment: Enzyme assay (c), IGFR kinase, Caliper LabChip. The experiment is classed as biochemical. The note with it: 30 nM IGFR kinase, 6 uM ATP, 3 uM peptide mix; read-out: IGFR IC50.

T1 sequence (P08069 31-1367): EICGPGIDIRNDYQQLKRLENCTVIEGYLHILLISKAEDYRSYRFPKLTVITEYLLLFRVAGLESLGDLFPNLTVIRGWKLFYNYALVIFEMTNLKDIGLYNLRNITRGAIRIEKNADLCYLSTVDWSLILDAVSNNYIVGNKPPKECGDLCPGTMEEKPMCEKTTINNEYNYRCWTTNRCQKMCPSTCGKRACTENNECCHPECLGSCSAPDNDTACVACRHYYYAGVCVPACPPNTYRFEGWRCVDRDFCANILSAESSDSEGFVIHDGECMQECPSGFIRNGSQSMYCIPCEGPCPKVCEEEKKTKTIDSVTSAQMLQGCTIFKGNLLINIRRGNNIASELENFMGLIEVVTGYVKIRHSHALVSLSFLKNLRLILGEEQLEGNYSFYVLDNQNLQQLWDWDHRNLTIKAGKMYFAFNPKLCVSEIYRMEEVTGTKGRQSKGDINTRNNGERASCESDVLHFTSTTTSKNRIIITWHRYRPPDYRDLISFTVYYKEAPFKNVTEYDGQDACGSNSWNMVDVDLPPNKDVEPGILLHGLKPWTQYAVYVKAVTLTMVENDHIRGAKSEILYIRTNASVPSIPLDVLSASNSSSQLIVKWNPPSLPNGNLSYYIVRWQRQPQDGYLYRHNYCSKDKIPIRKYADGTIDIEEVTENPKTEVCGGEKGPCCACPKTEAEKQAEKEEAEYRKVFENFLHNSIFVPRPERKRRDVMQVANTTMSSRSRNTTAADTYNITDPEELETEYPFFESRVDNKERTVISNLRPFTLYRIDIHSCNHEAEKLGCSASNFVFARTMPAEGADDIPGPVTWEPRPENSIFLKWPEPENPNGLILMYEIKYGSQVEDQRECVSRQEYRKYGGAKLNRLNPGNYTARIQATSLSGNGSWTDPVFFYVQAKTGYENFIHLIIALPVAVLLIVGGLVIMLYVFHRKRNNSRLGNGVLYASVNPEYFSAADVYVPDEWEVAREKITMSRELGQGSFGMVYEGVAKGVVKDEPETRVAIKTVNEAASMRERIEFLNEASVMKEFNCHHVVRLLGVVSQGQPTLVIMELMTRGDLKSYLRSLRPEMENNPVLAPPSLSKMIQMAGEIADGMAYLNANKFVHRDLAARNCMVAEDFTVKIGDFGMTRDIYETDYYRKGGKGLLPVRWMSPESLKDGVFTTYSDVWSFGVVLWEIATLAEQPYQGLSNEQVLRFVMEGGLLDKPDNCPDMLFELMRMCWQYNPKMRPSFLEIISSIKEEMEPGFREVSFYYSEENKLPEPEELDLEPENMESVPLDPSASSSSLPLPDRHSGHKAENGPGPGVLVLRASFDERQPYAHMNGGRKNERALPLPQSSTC

As for `COc1cc(OC[C@@H]2CCCN2)ccc1Nc1ncc(Cl)c(-c2cnc3ccccn23)n1` [Example 6.2, 5-chloro-4-imidazo[1,2-a]pyridin-3-yl-N-[2-methoxy-4-[[(2S)-pyrrolidin-2-yl]methoxy]phenyl]pyrimidin-2-amine], the pIC50 was 7.85.
`COc1cc(CN[C@@H](C)CO)ccc1Nc1ncc(Cl)c(-c2cnc3ccccn23)n1` [Example 21.19, (2S)-2-[[4-[(5-chloro-4-imidazo[1,2-a]pyridin-3-yl-pyrimidin-2-yl)amino]-3-methoxy-phenyl]methylamino]propan-1-ol]: the pIC50 is 7.64.
Turning to `COc1cc(CN2CC(O)C2)ccc1Nc1ncc(Cl)c(-c2cnc3ccccn23)n1` [Example 21.16, 1-[[4-[(5-chloro-4-imidazo[1,2-a]pyridin-3-yl-pyrimidin-2-yl)amino]-3-methoxy-phenyl]methyl]azetidin-3-ol], the pIC50 was 7.66.
With `COc1cc2c(cc1Nc1ncc(Cl)c(-c3cnn4ccccc34)n1)N(C(=O)CN(C)C)CC2` [Example 157, 1-[6-[(5-chloro-4-pyrazolo[1,5-a]pyridin-3-yl-pyrimidin-2-yl)amino]-5-methoxy-indolin-1-yl]-2-(dimethylamino)ethanone] the figure was 9.00; with `COc1cc(N2CCN(C(=O)[C@H]3CCCCN3)CC2)ccc1Nc1ncc(Cl)c(-c2cnc3ccccn23)n1` [Example 24.1, [4-[4-[(5-chloro-4-imidazo[1,2-a]pyridin-3-yl-pyrimidin-2-yl)amino]-3-methoxy-phenyl]piperazin-1-yl]-[(2R)-2-piperidyl]methanone], 8.10; with `COc1cc(N2CC3CN(CCO)CC(C2)O3)ccc1Nc1ncc(F)c(-c2cnn3ccccc23)n1` [Example 175, 2-[7-[4-[(5-fluoro-4-pyrazolo[1,5-a]pyridin-3-yl-pyrimidin-2-yl)amino]-3-methoxy-phenyl]-9-oxa-3,7-diazabicyclo[3.3.1]nonan-3-yl]ethanol], 7.85.
With `COc1ccc(N2CC3CNCC(C2)O3)cc1Nc1ncc(Cl)c(-c2cnc3c(F)cccn23)n1` [Example 192, 5-chloro-4-(8-fluoroimidazo[1,2-a]pyridin-3-yl)-N-[2-methoxy-5-(9-oxa-3,7-diazabicyclo[3.3.1]nonan-7-yl)phenyl]pyrimidin-2-amine] the figure was 6.28; with `COc1cc(N2CCN(C(=O)[C@@H](N)CCO)CC2)ccc1Nc1ncc(Cl)c(-c2cnc3ccccn23)n1` [Example 24.13, (2S)-2-amino-1-[4-[4-[(5-chloro-4-imidazo[1,2-a]pynidin-3-yl-pyrimidin-2-yl)amino]-3-methoxy-phenyl]piperazin-1-yl]-4-hydroxy-butan-1-one], 8.30.
Next, `COc1cc(OC2CCN(C(=O)[C@H](C)O)CC2)ccc1Nc1ncc(Cl)c(-c2cnc3ccccn23)n1` [Example 9A, (2S)-1-[4-[4-[(5-chloro-4-imidazo[1,2-a]pyridin-3-yl-pyrimidin-2-yl)amino]-3-methoxy-phenoxy]-1-piperidyl]-2-hydroxy-propan-1-one]: 7.74.
Take `COc1cc(C2CCN(C(C)=O)CC2)ccc1Nc1ncc(C)c(-c2cnc3c(F)cccn23)n1` [Example 196, 1-[4-[4-[[4-(8-fluoroimidazo[1,2-a]pyridin-3-yl)-5-methyl-pyrimidin-2-yl]amino]-3-methoxy-phenyl]-1-piperidyl]ethanone]: the pIC50 was 7.89.
As for `COc1cc2c(cc1Nc1ncc(F)c(-c3cnn4ccccc34)n1)N(C(=O)CN(C)C)CC2` [Example 176, 2-(dimethylamino)-1-[6-[(5-fluoro-4-pyrazolo[1,5-a]pyridin-3-yl-pyrimidin-2-yl)amino]-5-methoxy-indolin-1-yl]ethanone], the negative logarithm of the IC50 (pIC50) was 7.66.
In the case of `COc1cc(N2CCN(C(=O)[C@@H]3C[C@@H](O)CN3)CC2)ccc1Nc1ncc(Cl)c(-c2cnc3ccccn23)n1` [Example 24.9, [4-[4-[(5-chloro-4-imidazo[1,2-a]pyridin-3-yl-pyrimidin-2-yl)amino]-3-methoxy-phenyl]piperazin-1-yl]-[(2S,4R)-4-hydroxypyrrolidin-2-yl]methanone], the pIC50 is 8.22.

For orientation: pIC50 means −log10 of the IC50, conventionally taken in molar units.
